# Assay results as given in EP4251148B1, “HISTAMINE H3 RECEPTOR ANTAGONISTS/INVERSE AGONISTS FOR THE TREATMENT OF AUTISM SPECTRUM DISORDER” (Richter Gedeon Nyrt., priority 2020, dated 2022).
# How the values were obtained:
# [1] = target: T1, H3 receptor (Rattus norvegicus, UniProt Q9QYN8); assay: imetit-induced dipsogenia test; type: in vivo, Harlan Wistar rats; details: rats, test compound p.o. 30 min before imetit 3 mg/kg sc.; reversal of water intake
# T1 construct: from tissue; host or cells: whole living rat (central H3 receptors); animals from Janvier Elevage, France
# Text: Brain penetrant histamine H3 receptor agonists such as R-α-methylhistamine and imetit cause an acute increase in water intake in rodents (Galici et al., 2009; Barbier et al., 2007; Clapham and Kilpatrick, 1993; Garbarg et al., 1993). This dipsogenic effect is specific to H3 receptor activation as it can be antagonized selectively by centrally acting H3 antagonists (e.g., thioperamide or clobenpropit) and not by H1 or H2 […] such as mepyramide or loxtidine, respectively (Fox et al., 2002; Clapham and Kilpatrick, 1992). Therefore, the inhibition of H3 receptor-mediated dipsogenia can be used as a central pharmacodynamic measure of in vivo H3 receptor function following peripheral administration of antagonist/inverse agonist compounds (Raddatz et al., 2012; Medhurst et al., 2007; Fox et al., 2005).
# The protocol has been derived from Clapham and Kilpatrick (1992) with modifications. Group-housed adult male Harlan Wistar rats (Janvier Elevage, France) (340-500 g at the time of testing) were used as experimental animals. Rats were repeatedly used for testing for a maximum of four to five times with one week of wash-out period between testing days. Before commencing drug-testing sessions, animals were first habituated to the test procedure without receiving any drug treatment. On habituation days animals were administered 5 mL/kg distilled water p.o. and 30 min later 1 mL/kg physiological saline was injected sc., while drinking water was withdrawn from the home-cages. After a further 30 min, rats were isolated in test cages, where they had access to tap water, but not to chow. Water consumption was measured 30 min later. Rats that had drunken at least 0.2 g water during this period were randomized into treatment groups. On experimental days animals were administered the test compound or vehicle p.o. and 30 min later 3 mg/kg of the H3 receptor agonist imetit was injected sc. Investigational compounds were given in a volume of 5 mL/kg. Imetit dihydrobromide (Tocris, UK) was dissolved in physiological saline and administered in a volume of 1 mL/kg. Directly after treatment with imetit, drinking water was withdrawn from the home-cages. After an additional 30 min, rats were isolated to test cages, where they had access to tap water, but not to chow. Water consumption was measured after a free drinking period of 10 min.
# Means ± S.E. of water intake (in grams) were calculated for each group. Significance of drug effect was determined by ANOVA followed by the post hoc Duncan-test. Significance was considered at the p<0.05 level. The percental reversal of imetit-induced water intake was calculated from the group means using the formula as follows, percental reversal of dipsogenia equals 1-((IME-DRUG)/(IME-VEH))·100, where IME is water intake of the p.o. vehicle plus imetit group, VEH is water intake of p.o. vehicle plus sc. vehicle group, and DRUG is water intake of p.o. test compound plus sc. […] group. Percental reversal was plotted for each dose and an ED50 value was calculated from the fitted curve (reversal values greater than 100% were taken into account as 100% reversal) based on linear regression.
# [2] = tested on: prenatally valproate treated rats; assay: tactile sensitivity measurement with von Frey filaments in the prenatal valproate model; type: in vivo, Wistar rats; details: p.o., 60 min after treatment, 18-day-old rats
# Text: The prenatal valproate (VPA) model has excellent construct and face validity, therefore it is a widely accepted disease model of ASD. With respect to face validity, prenatal VPA exposure may lead to socio-communicational defects, excessive repetitive behaviors and increased sensitivity of various modalities (e.g., touch). […] Compounds that produced efficacy signals in ASD subjects comprise eg., oxytocin (Andari et al., PNAS 2010, 107:4389-4394).
# In this method, time-mated female Wistar rats are administered a single dose of VPA (300 mg/kg, i.p.) on gestational day 12.5. Offspring are housed according to standard laboratory conditions until time of behavioral testing. Animals are housed in groups of 4 in conventional cages and maintained at 22-24°C on a standard 12-hour light/dark cycle, with food and water available ad libitum. […]
# During the measurement with von Frey filaments, 18-day-old rats were placed separately in small cages (dimensions: 7 x 7 x 9 cm) with mesh floors. […] First, a baseline sensitivity value was determined, and animals were randomized into treatment groups based on this baseline. Sixty min after p.o. treatment sensitivity was measured again. A 50% sensitivity threshold was calculated based on the value of the last measured fiber thickness and the application pattern of the various filament thicknesses. […]
# [3] = tested on: BALB/C mice; assay: three-chamber assay, social novelty session, BALB/C mouse model of ASD; type: in vivo; details: 10 mg/kg (top dose); ** p<0.01 vs. familiar
# Text: The BALB/c mouse is a low-sociability, inbred line that is accepted as an idiopathic model of ASD (Brodkin, 2007; Burket et al., 2020; Ellegood, 2015; Jacome et al., 2011). Although the precise background of behavior is not known, the line carries a loss of function single nucleotide polymorphism in the tryptophane hydroxylase gene causing a 50% reduction in enzyme function (Russo et al., 2018). […] This model also has some predictive validity as some compounds that produced efficacy signals in humans have also been active in BALB/c mice such as D-cycloserine (Deutsch et al., 2012) or oxytocin (Teng et al., 2013).
# The three-chamber assay was performed in an 8-channel LABORAS™ sociability system (Metris b.v., Hoofdorp, The Netherlands). […] Consequently, movements of target mice were not recorded. Just like in the classical LABORASTM set-up (Van de Weerd et al., 2001; Quinn et al., 2003), mechanical vibration generated by movement of the animals was transformed to electrical signals that were analyzed and the trajectory of the animals was determined. […]
# During the behavioral assays, test mice were habituated first to the center compartment of the three-chamber apparatus with the guillotine doors closed for 2 min. […] During this test session the time spent in the center chamber as well as with direct contact or no contact on the social versus non-social side was recorded. […]
# [4] = tested on: prenatal valproate model of ASD in mice; details: 3 mg/kg intraperitoneally; cited from earlier work
# [5] = 3 mg/kg intraperitoneally; cited from earlier work
# [6] = tested on: monoamine oxidase A; details: human and rat enzyme; cited from earlier work
# [7] = tested on: monoamine oxidase B; details: human and rat enzyme; slight preference for monoamine oxidase B; cited from earlier work
# T1 sequence (Q9QYN8 whole entry): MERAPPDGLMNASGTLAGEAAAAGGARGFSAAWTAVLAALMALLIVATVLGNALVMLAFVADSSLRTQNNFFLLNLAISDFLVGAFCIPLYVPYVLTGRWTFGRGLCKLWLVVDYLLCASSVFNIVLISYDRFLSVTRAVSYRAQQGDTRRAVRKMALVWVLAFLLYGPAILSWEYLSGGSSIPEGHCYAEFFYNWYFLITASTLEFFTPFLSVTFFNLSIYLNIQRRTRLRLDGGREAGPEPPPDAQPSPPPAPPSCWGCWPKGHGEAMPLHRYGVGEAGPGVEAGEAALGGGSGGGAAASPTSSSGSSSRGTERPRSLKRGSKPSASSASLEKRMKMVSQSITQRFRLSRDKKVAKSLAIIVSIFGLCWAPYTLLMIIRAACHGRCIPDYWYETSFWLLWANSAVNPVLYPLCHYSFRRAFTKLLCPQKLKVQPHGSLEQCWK
imetit-induced dipsogenia ED50 [1],Structure (SMILES),other results
< 0.3 mg/kg p.o.,"O=C(c1ccc(CN2CCOCC2)cc1)N1CCN(C2CC2)CC1 [bavisant, (4-cyclopropylpiperazin-1-yl)-[4-(morpholin-4-ylmethyl)phenyl]methanone]",–
< 1 mg/kg p.o.,"Cn1nc(N2CCC(OC(=O)N3CCN(C4CCC4)CC3)CC2)ccc1=O [LML-134, 1-(1-methyl-6-oxo-1,6-dihydropyridazin-3-yl)piperidin-4-yl 4-cyclobutylpiperazine-1-carboxylate]","social novelty (time spent with investigation of the novel animal) [3]: improve social novelty; tactile hypersensitivity (threshold level of paw withdrawal to von Frey filaments) ([2]; 10 mg/kg (top dose), ++ p<0.01 vs. VPA): reversed this tactile hypersensitivity"
< 1 mg/kg p.o.,"O=C(CN1CCOCC1)Nc1ccc(OC2CCN(C3CCC3)CC2)cc1 [samelisant, N-{4-[(1-cyclobutylpiperidin-4-yl)oxy]phenyl}-2-(morpholin-4-yl)acetamide]",–

# More lines, now with the values behind:
Structure (SMILES),imetit-induced dipsogenia ED50 [1],other results
"CNC(=O)c1ccc(Oc2ccc3c(c2)CCN(C2CCC2)CC3)nc1 [GSK-189254, 6-[(3-cyclobutyl-1,2,4,5-tetrahydro-3-benzazepin-7-yl)oxy]-N-methylpyridine-3-carboxamide]",0.14 mg/kg p.o.,"tactile hypersensitivity (threshold level of paw withdrawal to von Frey filaments) ([2]; 0.1 mg/kg (middle dose), + p<0.05 vs. VPA, inverted U-shaped dose-response curve): reversed this tactile hypersensitivity"
"CCNC(=O)C1CC(F)(c2ccc(CN3CCCC3)c(F)c2)C1 (stereo not drawn) [PF-03654746, trans-N-Ethyl-3-fluoro-3-[3-fluoro-4-(1pyrrolidinylmethyl)phenyl]cyclobutanecarboxamide]",0.78 mg/kg p.o.,–
"C[C@@H]1CCCN1CCc1cc2cc(-c3ccc(C#N)cc3)ccc2o1 [ABT-239, 4-(2-{2-[(2R)-2-Methylpyrrolidin-1-yl]ethyl}-benzofuran-5-vl)benzonitrile]",0.26 mg/kg p.o.,–
"Clc1ccc(CCCOCCCN2CCCCC2)cc1 [pitolisant, 1-[3-[3-(4-chlorophenyl)propoxy]propyl]piperidine]",11 mg/kg p.o.,–
O=C(c1ccc(OCCCc2cnc[nH]2)cc1)C1CC1 [ciproxifan],–,social deficits and excessive repetitive behavior [4]: improved social deficits and excessive repetitive behavior; plasma exposures [5]: micromolar range; inhibition of monoamine oxidase A [6]: micromolar concentration range; inhibition of monoamine oxidase B [7]: micromolar concentration range
